The values below come from patent US20260258035A1, “FIVE-MEMBERED AND SIX-MEMBERED NITROGEN-CONTAINING COMPOUND, AND INTERMEDIATE, PREPARATION METHOD AND USE THEREOF” (HANGZHOU SYNRX THERAPEUTICS BIOMEDICAL TECHNOLOGY CO., LTD., priority 2022, published 2026).

The target of test [1] is PARG (Homo sapiens, UniProt Q86W56). Kind of test: Biochemical assay (PARG, TFMU-ADPr substrate).
In test [2] the test system is HCC1806. Kind of test: Cell viability assay (CellTiter-Glo). In kind it is cell-based, Human.
Where [3] appears, read: 4 nM PARG, 66.2 uM TFMU-ADPr, 3 min at room temperature.
Where [4] appears, read: Homo sapiens, HCC1806, 168 h, HCC1806, 7 days, CellTiter-Glo, read-out: IC50 (nM) in cell viability assay.

SMILES strings stand for the structures. Read-outs that look alike come from different tables or passages of the source.

Chain of PARG (Q86W56 whole entry): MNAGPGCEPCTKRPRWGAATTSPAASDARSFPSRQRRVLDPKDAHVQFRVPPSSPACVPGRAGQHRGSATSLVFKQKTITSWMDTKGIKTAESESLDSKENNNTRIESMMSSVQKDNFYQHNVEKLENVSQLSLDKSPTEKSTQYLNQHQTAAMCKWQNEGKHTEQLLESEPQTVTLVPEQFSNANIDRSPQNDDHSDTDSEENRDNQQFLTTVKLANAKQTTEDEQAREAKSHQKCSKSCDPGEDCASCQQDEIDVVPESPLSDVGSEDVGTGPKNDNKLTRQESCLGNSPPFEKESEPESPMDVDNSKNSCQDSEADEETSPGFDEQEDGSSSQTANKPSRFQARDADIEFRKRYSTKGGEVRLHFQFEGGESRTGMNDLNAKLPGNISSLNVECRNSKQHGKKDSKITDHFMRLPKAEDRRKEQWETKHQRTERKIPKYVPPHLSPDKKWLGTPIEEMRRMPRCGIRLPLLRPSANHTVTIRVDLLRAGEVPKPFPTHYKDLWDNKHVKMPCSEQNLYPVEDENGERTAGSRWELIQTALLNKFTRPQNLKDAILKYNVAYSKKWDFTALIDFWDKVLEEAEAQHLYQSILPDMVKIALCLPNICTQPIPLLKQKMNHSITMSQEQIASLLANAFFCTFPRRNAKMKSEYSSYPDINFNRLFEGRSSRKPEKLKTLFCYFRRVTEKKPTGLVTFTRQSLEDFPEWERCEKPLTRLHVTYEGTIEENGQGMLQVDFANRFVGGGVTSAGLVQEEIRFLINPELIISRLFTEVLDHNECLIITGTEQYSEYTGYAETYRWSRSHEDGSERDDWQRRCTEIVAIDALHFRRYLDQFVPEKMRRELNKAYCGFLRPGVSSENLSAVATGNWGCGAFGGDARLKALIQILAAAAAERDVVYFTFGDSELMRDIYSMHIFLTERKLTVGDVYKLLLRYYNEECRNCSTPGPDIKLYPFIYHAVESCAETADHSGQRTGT

Turning to `N#CC1(NS(=O)(=O)c2ccc3c(C4=CCC5(CNC5)C4)nc(-c4nnc(C(F)F)s4)n3c2)CC1` [Example 22, N-(1-cyanocyclopropyl)-3-(5-(difluoromethyl)-1,3,4-thiadiazol-2-yl)-1-(2-azaspiro[3.4]oct-6-en-6-yl)imidazo[1,5-a]pyridine-6-sulfonamide], the IC50 in test [1] (setting [3]) was less than 100 nM; in test [1] (PARG, TFMU-ADPr substrate), 5.17 nM; in test [2] (Homo sapiens, HCC1806, 168 h, read-out: IC50 (nM) in cell viability assay, HCC1806, 7 days, CellTiter-Glo), greater than 30000 nM; in test [2] (read-out: IC50 (nM) in cell viability assay, HCC1806, 7 days, CellTiter-Glo), 30000 nM.

On to `CN(C)C(=O)N1CC2(CC=C(c3nc(-c4nnc(C(F)F)s4)n4cc(S(=O)(=O)NC5(C#N)CC5)ccc34)C2)C1` [Example 25, 6-(6-(N-(1-cyanocyclopropyl)sulfamoyl)-3-(5-(difluoromethyl)-1,3,4-thiadiazol-2-yl)imidazo[1,5-a]pyridin-1-yl)-N,N-dimethyl-2-azaspiro[3.4]oct-6-ene-2-carboxamide], for which the IC50 was less than 100 nM in test [1] (setting [3]); 4.84 nM in test [1] (PARG, TFMU-ADPr substrate); 490 nM in test [2] (HCC1806, 7 days, CellTiter-Glo, read-out: IC50 (nM) in cell viability assay); less than 500 nM in test [2] (setting [4]).

Take `Cc1cnc(-c2cnn3c(N4CCN(C(=O)C(C)C)CC4)cc(S(=O)(=O)NC4(C#N)CC4)cc23)s1` [Example 29, N-(1-cyanocyclopropyl)-7-(4-isobutyrylpiperazin-1-yl)-3-(5-methylthiazol-2-yl)pyrazolo[1,5-a]pyridine-5-sulfonamide]: the IC50 in test [1] (setting [3]) was less than 100 nM; in test [1] (PARG, TFMU-ADPr substrate) it was 94.6 nM; in test [2] (setting [4]) it was 5000 to 30000 nM.

Take `Cc1nnc(-c2cnn3c(N4CCN(C(=O)C(C)C)CC4)cc(S(=O)(=O)NC4(C#N)CC4)cc23)s1` [Example 30, N-(1-cyanocyclopropyl)-7-(4-isobutyrylpiperazin-1-yl)-3-(5-methyl-1,3,4-thiadiazol-2-yl)pyrazolo[1,5-a]pyridine-5-sulfonamide]: the IC50 was less than 100 nM in test [1] (setting [3]); 88.9 nM in test [1] (PARG, TFMU-ADPr substrate); greater than 30000 nM in test [2] (setting [4]).

For the molecule `CC(C)C(=O)N1CCN(c2cc(S(=O)(=O)NC3(C)CNC3)cn3c(-c4nnc(C(F)F)s4)ncc23)CC1` [Example 50, 3-(5-(difluoromethyl)-1,3,4-thiadiazol-2-yl)-8-(4-isobutyrylpiperazin-1-yl)-N-(3-methylazetidin-3-yl)imidazo[1,5-a]pyridine-6-sulfonamide], the IC50 is greater than 1000 nM in test [1] (setting [3]) and greater than 30000 nM in test [2] (setting [4]).

Consider `CC(C)C(=O)N1CCN(c2cc(S(=O)(=O)NC3(C)CN(C)C3)cn3c(-c4nnc(C(F)F)s4)ncc23)CC1` [Example 51, 3-(5-(difluoromethyl)-1,3,4-thiadiazol-2-yl)-N-(1,3-dimethylazetidin-3-yl)-8-(4-isobutyrylpiperazin-1-yl)imidazo[1,5-a]pyridine-6-sulfonamide], for which the IC50 in test [1] (setting [3]) is greater than 1000 nM; in test [2] (setting [4]), greater than 30000 nM.

Turning to `CC(C)C(=O)N1CCN(c2cc(S(=O)(=O)NC34CC(F)(C3)C4)cn3c(-c4nnc(C(F)F)s4)ncc23)CC1` [Example 59, 3-(5-(difluoromethyl)-1,3,4-thiadiazol-2-yl)-N-(3-fluorobicyclo[1.1.1]pentan-1-yl)-8-(4-isobutyrylpiperazin-1-yl)imidazo[1,5-a]pyridine-6-sulfonamide], the IC50 in test [1] (setting [3]) is greater than 1000 nM; in test [2] (setting [4]), greater than 30000 nM.

On to `CC(C)C(=O)N1CCN(c2cc(S(=O)(=O)NC3(C)CC(F)(F)C3)cn3c(-c4nnc(C(F)F)s4)ncc23)CC1` [Example 61, N-(3,3-difluoro-1-methylcyclobutyl)-3-(5-(difluoromethyl)-1,3,4-thiadiazol-2-yl)-8-(4-isobutyrylpiperazin-1-yl)imidazo[1,5-a]pyridine-6-sulfonamide], for which the IC50 in test [1] (setting [3]) is 100 to 500 nM; in test [1] (PARG, TFMU-ADPr substrate) it was 121 nM; in test [2] (setting [4]), greater than 30000 nM.

Take `CC(C)C(=O)N1CCN(c2cc(S(=O)(=O)NC3(C#N)CC3)cc3c(-c4nnc(C(F)F)s4)nc(Cl)n23)CC1` [Example 98, 3-chloro-N-(1-cyanocyclopropyl)-1-(5-(difluoromethyl)-1,3,4-thiadiazol-2-yl)-5-(4-isobutyrylpiperazin-1-yl)imidazo[1,5-a]pyridine-7-sulfonamide]: the IC50 in test [2] (setting [4]) is greater than 30000 nM.

In the case of `Cc1c(-c2cc(S(=O)(=O)NC3(C#N)CC3)cn3c(-c4nnc(C(F)F)s4)ncc23)cnn1C(C)C` [Example 143, N-(1-cyanocyclopropyl)-3-(5-(difluoromethyl)-1,3,4-thiadiazol-2-yl)-8-(1-isopropyl-5-methyl-1H-pyrazol-4-yl)imidazo[1,5-a]pyridine-6-sulfonamide], the IC50 in test [1] (setting [3]) was less than 100 nM; in test [1] (PARG, TFMU-ADPr substrate) it was 12 nM.

In the case of `N#CC1(NS(=O)(=O)c2cc(N3CCC(CO)(C(F)(F)F)CC3)c3cnc(-c4nnc(C(F)F)s4)n3c2)CC1` [Example 145, N-(1-cyanocyclopropyl)-3-(5-(difluoromethyl)-1,3,4-thiadiazol-2-yl)-8-(4-(hydroxymethyl)-4-(trifluoromethyl)piperidin-1-yl)imidazo[1,5-a]pyridine-6-sulfonamide], the IC50 in test [1] (setting [3]) was 100 to 500 nM; in test [1] (PARG, TFMU-ADPr substrate), 316 nM.

As to `CN1CC(Nc2cc(S(=O)(=O)NC3(C#N)CC3)cn3c(-c4nnc(C(F)F)s4)ncc23)C1` [Example 150, N-(1-cyanocyclopropyl)-3-(5-(difluoromethyl)-1,3,4-thiadiazol-2-yl)-8-((1-methylazetidin-3-yl)amino)imidazo[1,5-a]pyridine-6-sulfonamide], the IC50 in test [1] (setting [3]) is less than 100 nM; in test [1] (PARG, TFMU-ADPr substrate), 8.29 nM.

On to `N#CC1(NS(=O)(=O)c2cc(NC3CCC(OC(F)(F)F)C3)c3cnc(-c4nnc(C(F)F)s4)n3c2)CC1` (stereo not drawn) [Example 151, N-(1-cyanocyclopropyl)-3-(5-(difluoromethyl)-1,3,4-thiadiazol-2-yl)-8-((3-(trifluoromethoxy)cyclopentyl)amino)imidazo[1,5-a]pyridine-6-sulfonamide], for which the half-inhibitory concentration (IC50) was 100 to 500 nM in test [1] (setting [3]) and 178 nM in test [1] (PARG, TFMU-ADPr substrate).

Consider `O=S(=O)(NC1CC1)c1cc(N2Cc3c[nH]nc3C2)c2cnc(-c3nnc(C(F)(F)F)s3)n2c1` [Example 247, N-cyclopropyl-8-(2,6-dihydropyrrolo[3,4-c]pyrazol-5(4H)-yl)-3-(5-(trifluoromethyl)-1,3,4-thiadiazol-2-yl)imidazo[1,5-a]pyridine-6-sulfonamide], for which the IC50 in test [2] (setting [4]) came out at 27200 nM.

In the case of `N#CC1(NS(=O)(=O)c2cc(N3CCCC(N)C3)c3cnc(-c4nnc(C(F)(F)F)s4)n3c2)CC1` (stereo not drawn) [Example 262, 8-(3-aminopiperidin-1-yl)-N-(1-cyanocyclopropyl)-3-(5-(trifluoromethyl)-1,3,4-thiadiazol-2-yl)imidazo[1,5-a]pyridine-6-sulfonamide], the IC50 in test [2] (setting [4]) was determined as 2000 nM.

In the case of `N#CC1(NS(=O)(=O)c2cc(N3CCC(N)CC3)c3cnc(-c4nnc(C(F)(F)F)s4)n3c2)CC1` [Example 263, 8-(4-aminopiperidin-1-yl)-N-(1-cyanocyclopropyl)-3-(5-(trifluoromethyl)-1,3,4-thiadiazol-2-yl)imidazo[1,5-a]pyridine-6-sulfonamide], in test [2] (setting [4]), the IC50 was 4500 nM.

On to `CC(C)C(=O)NC1CCCN(c2cc(S(=O)(=O)NC3(C#N)CC3)cn3c(-c4nnc(C(F)(F)F)s4)ncc23)C1` (stereo not drawn) [Example 267, N-(1-(6-(N-(1-cyanocyclopropyl)sulfamoyl)-3-(5-(trifluoromethyl)-1,3,4-thiadiazol-2-yl)imidazo[1,5-a]pyridin-8-yl)piperidin-3-yl)isobutyramide], for which the IC50 in test [2] (setting [4]) stood at 1500 nM.

In turn, `N#CC1(NS(=O)(=O)c2cc(N3CCN(C(=O)C4CNCCN4)CC3)c3cnc(-c4nnc(C(F)(F)F)s4)n3c2)CC1` (stereo not drawn) [Example 280, N-(1-cyanocyclopropyl)-8-(4-(piperazine-2-carbonyl)piperazin-1-yl)-3-(5-(trifluoromethyl)-1,3,4-thiadiazol-2-yl)imidazo[1,5-a]pyridine-6-sulfonamide] yielded an IC50 in test [1] (PARG, TFMU-ADPr substrate) of 45.7 nM.

With `C[C@@H]1CN(c2cc(S(=O)(=O)NC3(C#N)CC3)cn3c(-c4nnc(C(F)F)s4)ncc23)CCN1C(=O)C1CNC1` [Example 288, (R)-8-(4-(azetidine-3-carbonyl)-3-methylpiperazin-1-yl)-N-(1-cyanocyclopropyl)-3-(5-(difluoromethyl)-1,3,4-thiadiazol-2-yl)imidazo[1,5-a]pyridine-6-sulfonamide], the IC50 in test [1] (PARG, TFMU-ADPr substrate) was found to be 6.03 nM.

Turning to `N#CC1(NS(=O)(=O)c2cc(C#Cc3cncs3)c3cnc(-c4nnc(C(F)F)s4)n3c2)CC1` [Example 374, N-(1-cyanocyclopropyl)-3-(5-(difluoromethyl)-1,3,4-thiadiazol-2-yl)-8-(thiazol-5-ylethynyl)imidazo[1,5-a]pyridine-6-sulfonamide], in test [2] (setting [4]), the IC50 worked out at 2320 nM.

As for `N#CC1(NS(=O)(=O)c2cc(C#CC3CCOC3)c3cnc(-c4nnc(C(F)F)s4)n3c2)CC1` (stereo not drawn) [Example 375, N-(1-cyanocyclopropyl)-3-(5-(difluoromethyl)-1,3,4-thiadiazol-2-yl)-8-((tetrahydrofuran-3-yl)ethynyl)imidazo[1,5-a]pyridine-6-sulfonamide], in test [2] (setting [4]), the IC50 amounted to 855 nM.

For the molecule `N#CC1(NS(=O)(=O)c2cc(C#Cc3c[nH]cn3)c3cnc(-c4nnc(C(F)F)s4)n3c2)CC1` [Example 376, 8-((1H-imidazol-4-yl)ethynyl)-N-(1-cyanocyclopropyl)-3-(5-(difluoromethyl)-1,3,4-thiadiazol-2-yl)imidazo[1,5-a]pyridine-6-sulfonamide], the IC50 in test [2] (setting [4]) was 30000 nM.

With `C[C@H]1CN(c2cc(S(=O)(=O)NC3(C)COC3)cn3c(-c4nnc(C(F)F)s4)nc(Cl)c23)C[C@H](CO)O1` [Example 397, 1-chloro-3-(5-(difluoromethyl)-1,3,4-thiadiazol-2-yl)-8-((2R,6S)-2-(hydroxymethyl)-6-methylmorpholino)-N-(3-methyloxetan-3-yl)imidazo[1,5-a]pyridine-6-sulfonamide], the IC50 in test [2] (setting [4]) amounted to 530 nM.
